Assay results published in the supplement of paper PMC10307832.

How the values were obtained:
Test in all cases: relative viability (nuclei count vs DMSO), 5 days (fraction); higher = more cells survive
ALW-II-49-7 + OSI-027 = compound: Cc1ccc(C(=O)Nc2cccc(C(F)(F)F)c2)cc1Nc1cncc(C(N)=O)c1 [ALW-II-49-7] + COc1cccc2cc(-c3nc([C@H]4CC[C@H](C(=O)O)CC4)n4ncnc(N)c34)[nH]c12 [OSI-027] (partner 0.5 µM)
In short: (§1)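 Lung cancer cell lines in 1536-well plates got either a single drug or a fixed anchor-drug dose together with five library-drug doses (not always all listed) in √10 steps, by pin tool, on the day after seeding. Nuclei were counted after 5 days, and relative viability is the treated-to-vehicle ratio of nuclei counts. Values are medians of duplicate plates.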

ALW-II-49-7 + Pictilisib = compound: Cc1ccc(C(=O)Nc2cccc(C(F)(F)F)c2)cc1Nc1cncc(C(N)=O)c1 [ALW-II-49-7] + CS(=O)(=O)N1CCN(Cc2cc3nc(-c4cccc5[nH]ncc45)nc(N4CCOCC4)c3s2)CC1 [Pictilisib] (partner 1 µM)
In short: as §1

ALW-II-49-7 + Navitoclax = compound: Cc1ccc(C(=O)Nc2cccc(C(F)(F)F)c2)cc1Nc1cncc(C(N)=O)c1 [ALW-II-49-7] + CC1(C)CCC(c2ccc(Cl)cc2)=C(CN2CCN(c3ccc(C(=O)NS(=O)(=O)c4ccc(N[C@H](CCN5CCOCC5)CSc5ccccc5)c(S(=O)(=O)C(F)(F)F)c4)cc3)CC2)C1 [Navitoclax] (partner 0.5 µM)
In short: as §1

Cell Line | relative viability (ALW-II-49-7 + OSI-027; first compound 0.08 µM) | relative viability (ALW-II-49-7 + OSI-027; first compound 0.253 µM) | relative viability (ALW-II-49-7 + OSI-027; first compound 0.8 µM) | relative viability (ALW-II-49-7 + OSI-027; first compound 2.53 µM) | relative viability (ALW-II-49-7 + OSI-027; first compound 8 µM) | relative viability (ALW-II-49-7 + Pictilisib; first compound 0.08 µM) | relative viability (ALW-II-49-7 + Pictilisib; first compound 0.253 µM) | relative viability (ALW-II-49-7 + Pictilisib; first compound 0.8 µM) | relative viability (ALW-II-49-7 + Pictilisib; first compound 2.53 µM) | relative viability (ALW-II-49-7 + Pictilisib; first compound 8 µM) | relative viability (ALW-II-49-7 + Navitoclax; first compound 0.08 µM) | relative viability (ALW-II-49-7 + Navitoclax; first compound 0.253 µM) | relative viability (ALW-II-49-7 + Navitoclax; first compound 0.8 µM) | relative viability (ALW-II-49-7 + Navitoclax; first compound 2.53 µM) | relative viability (ALW-II-49-7 + Navitoclax; first compound 8 µM)
NCI-H838 | 0.352 | 0.385 | 0.389 | 0.434 | 0.378 | 0.342 | 0.464 | 0.432 | 0.46 | 0.393 | 1.12 | 1.42 | 1.17 | 1.14 | 1.17
NCI-H1355 | 0.372 | 0.404 | 0.363 | 0.364 | 0.353 | 0.413 | 0.469 | 0.395 | 0.322 | 0.345 | 0.93 | 0.988 | 0.981 | 0.715 | 0.802
NCI-H1395 | 0.593 | 0.69 | 0.736 | 0.677 | 0.62 | 0.646 | 1.05 | 0.653 | 0.581 | 0.62 | 1.28 | 1.16 | 1.01 | 0.307 | 1.22
NCI-H1437 | 0.835 | 0.744 | 0.751 | 0.877 | 0.75 | 0.435 | 0.414 |  | 0.432 | 0.399 | 1.11 | 1.17 |  | 1.07 | 1.06
NCI-H1650 | 0.444 | 0.412 | 0.451 | 0.631 | 0.687 | 0.583 | 0.5 | 0.581 | 0.618 | 0.6 | 1.05 | 1.06 | 1.32 | 1.34 | 1.21
NCI-H1651 | 0.668 | 0.629 | 0.543 | 0.687 | 0.572 | 0.525 | 0.38 | 0.329 | 0.491 | 0.572 | 1.09 | 0.969 | 1.13 | 0.921 | 1.06
NCI-H1666 | 0.905 | 0.869 | 0.778 | 1.02 | 0.816 | 0.639 | 0.578 | 0.406 | 0.477 | 0.501 | 0.879 | 1.03 | 1.03 | 0.978 | 1
NCI-H1734 | 0.602 | 0.652 | 0.55 | 0.556 | 0.534 | 0.491 | 0.42 | 0.491 | 0.48 | 0.499 | 0.778 | 0.954 | 0.822 | 0.634 | 0.665
NCI-H1755 | 0.789 | 0.728 | 0.7 | 0.67 | 0.532 | 0.377 | 0.531 | 0.421 | 0.352 | 0.307 | 0.976 | 1.03 | 0.976 | 0.884 | 0.759
NCI-H1792 | 0.805 | 0.774 | 0.609 | 0.149 | 0.376 | 0.232 | 0.21 | 0.215 | 0.183 | 0.258 | 0.351 | 0.438 | 0.725 | 0.654 | 0.327
NCI-H1793 | 0.257 | 0.301 | 0.24 | 0.235 | 0.248 | 0.371 | 0.333 | 0.293 | 0.396 | 0.286 | 0.268 | 0.505 | 0.463 | 0.363 | 0.463
